{
  "source": "patent US20230053540A1",
  "about": "“TREATMENT OF LIVER INJURY” (Massachusetts Institute of Technology, priority 2019, published 2023)",
  "test_system": "hepatocytes",
  "assay": "Seq-Well scRNA-Seq of hepatocytes after APAP overdose (signature scores, DEG vs untreated)",
  "type": "in vivo, mouse",
  "data": [
    {"smiles": "CC(=O)Nc1ccc(O)cc1", "note": "[APAP, acetaminophen]", "values": [
      {"measurement": "Slc25a10 avg_logFC", "setting": "A96 vs untreated (UT)", "result": 0.2508},
      {"measurement": "Slc25a10 pct.1", "setting": "A96 vs untreated (UT)", "result": 0.701},
      {"measurement": "Slc25a13 avg_logFC", "setting": "A96 vs untreated (UT)", "result": 0.2573},
      {"measurement": "Slc25a13 pct.1", "setting": "A96 vs untreated (UT)", "result": 0.786},
      {"measurement": "Slc25a20 avg_logFC", "setting": "A96 vs untreated (UT)", "result": 0.3215},
      {"measurement": "Slc25a20 pct.1", "setting": "A96 vs untreated (UT)", "result": 0.671},
      {"measurement": "Slc25a47 avg_logFC", "setting": "A96 vs untreated (UT)", "result": 0.2777},
      {"measurement": "Slc25a47 pct.1", "setting": "A96 vs untreated (UT)", "result": 0.96},
      {"measurement": "Slc27a2 avg_logFC", "setting": "A96 vs untreated (UT)", "result": 0.3931},
      {"measurement": "Slc27a2 pct.1", "setting": "A96 vs untreated (UT)", "result": 0.988},
      {"measurement": "Slc27a5 avg_logFC", "setting": "A96 vs untreated (UT)", "result": 0.2567},
      {"measurement": "Slc27a5 pct.1", "setting": "A96 vs untreated (UT)", "result": 0.958},
      {"measurement": "Slc40a1 avg_logFC", "setting": "A96 vs untreated (UT)", "result": 0.336},
      {"measurement": "Slc40a1 pct.1", "setting": "A96 vs untreated (UT)", "result": 0.551},
      {"measurement": "Slco1a4 avg_logFC", "setting": "A96 vs untreated (UT)", "result": 0.4652},
      {"measurement": "Slco1a4 pct.1", "setting": "A96 vs untreated (UT)", "result": 0.507},
      {"measurement": "Snord13 avg_logFC", "setting": "A96 vs untreated (UT)", "result": 0.2659},
      {"measurement": "Snord13 pct.1", "setting": "A96 vs untreated (UT)", "result": 0.386},
      {"measurement": "Snord118 avg_logFC", "setting": "A96 vs untreated (UT)", "result": 0.5783},
      {"measurement": "Snord118 pct.1", "setting": "A96 vs untreated (UT)", "result": 0.564},
      {"measurement": "St3gal5 avg_logFC", "setting": "A96 vs untreated (UT)", "result": 0.3862},
      {"measurement": "St3gal5 pct.1", "setting": "A96 vs untreated (UT)", "result": 0.71},
      {"measurement": "Sult1a1 avg_logFC", "setting": "A96 vs untreated (UT)", "result": 0.522},
      {"measurement": "Sult1a1 pct.1", "setting": "A96 vs untreated (UT)", "result": 0.881},
      {"measurement": "Sult1d1 avg_logFC", "setting": "A96 vs untreated (UT)", "result": 0.4421},
      {"measurement": "Sult1d1 pct.1", "setting": "A96 vs untreated (UT)", "result": 0.855},
      {"measurement": "Tat avg_logFC", "setting": "A96 vs untreated (UT)", "result": 0.2529},
      {"measurement": "Tat pct.1", "setting": "A96 vs untreated (UT)", "result": 0.981},
      {"measurement": "Tgoln1 avg_logFC", "setting": "A96 vs untreated (UT)", "result": 0.3801},
      {"measurement": "Tgoln1 pct.1", "setting": "A96 vs untreated (UT)", "result": 0.756},
      {"measurement": "Tmbim6 avg_logFC", "setting": "A96 vs untreated (UT)", "result": 0.2624},
      {"measurement": "Tmbim6 pct.1", "setting": "A96 vs untreated (UT)", "result": 0.988},
      {"measurement": "Tmed5 avg_logFC", "setting": "A96 vs untreated (UT)", "result": 0.3754},
      {"measurement": "Tmed5 pct.1", "setting": "A96 vs untreated (UT)", "result": 0.714},
      {"measurement": "Tmem106b avg_logFC", "setting": "A96 vs untreated (UT)", "result": 0.3285},
      {"measurement": "Tmem106b pct.1", "setting": "A96 vs untreated (UT)", "result": 0.727},
      {"measurement": "Tob1 avg_logFC", "setting": "A96 vs untreated (UT)", "result": 0.3731},
      {"measurement": "Tob1 pct.1", "setting": "A96 vs untreated (UT)", "result": 0.649},
      {"measurement": "Trp53inp1 avg_logFC", "setting": "A96 vs untreated (UT)", "result": 0.3647},
      {"measurement": "Trp53inp1 pct.1", "setting": "A96 vs untreated (UT)", "result": 0.551},
      {"measurement": "Tsc22d3 avg_logFC", "setting": "A96 vs untreated (UT)", "result": 0.3425},
      {"measurement": "Tsc22d3 pct.1", "setting": "A96 vs untreated (UT)", "result": 0.534},
      {"measurement": "Ttpa avg_logFC", "setting": "A96 vs untreated (UT)", "result": 0.6266},
      {"measurement": "Ttpa pct.1", "setting": "A96 vs untreated (UT)", "result": 0.98},
      {"measurement": "Ttr avg_logFC", "setting": "A96 vs untreated (UT)", "result": 0.3459},
      {"measurement": "Ttr pct.1", "setting": "A96 vs untreated (UT)", "result": 1},
      {"measurement": "Ubc avg_logFC", "setting": "A96 vs untreated (UT)", "result": 0.3578},
      {"measurement": "Ubc pct.1", "setting": "A96 vs untreated (UT)", "result": 0.968},
      {"measurement": "Ubr3 avg_logFC", "setting": "A96 vs untreated (UT)", "result": 0.2529},
      {"measurement": "Ubr3 pct.1", "setting": "A96 vs untreated (UT)", "result": 0.585},
      {"measurement": "Uhrf1bp1l avg_logFC", "setting": "A96 vs untreated (UT)", "result": 0.2559},
      {"measurement": "Uhrf1bp1l pct.1", "setting": "A96 vs untreated (UT)", "result": 0.415},
      {"measurement": "Upp2 avg_logFC", "setting": "A96 vs untreated (UT)", "result": "−0.2859"},
      {"measurement": "Upp2 pct.1", "setting": "A96 vs untreated (UT)", "result": 0.545},
      {"measurement": "Uroc1 avg_logFC", "setting": "A96 vs untreated (UT)", "result": 0.3074},
      {"measurement": "Uroc1 pct.1", "setting": "A96 vs untreated (UT)", "result": 0.726},
      {"measurement": "Wbp1l avg_logFC", "setting": "A96 vs untreated (UT)", "result": 0.3456},
      {"measurement": "Wbp1l pct.1", "setting": "A96 vs untreated (UT)", "result": 0.789},
      {"measurement": "Zfp36l1 avg_logFC", "setting": "A96 vs untreated (UT)", "result": 0.3298},
      {"measurement": "Zfp36l1 pct.1", "setting": "A96 vs untreated (UT)", "result": 0.601},
      {"measurement": "Zfp91 avg_logFC", "setting": "A96 vs untreated (UT)", "result": 0.3741},
      {"measurement": "Zfp91 pct.1", "setting": "A96 vs untreated (UT)", "result": 0.693},
      {"measurement": "Zfp683 avg_logFC", "setting": "A96 vs untreated (UT)", "result": 0.3027},
      {"measurement": "Zfp683 pct.1", "setting": "A96 vs untreated (UT)", "result": 0.476},
      {"measurement": "mt-Co1 avg_logFC", "setting": "A96 vs untreated (UT)", "result": "−0.8459"},
      {"measurement": "mt-Co1 pct.1", "setting": "A96 vs untreated (UT)", "result": 0.983},
      {"measurement": "mt-Co2 avg_logFC", "setting": "A96 vs untreated (UT)", "result": "−1.033"},
      {"measurement": "mt-Co2 pct.1", "setting": "A96 vs untreated (UT)", "result": 0.313},
      {"measurement": "mt-Co3 avg_logFC", "setting": "A96 vs untreated (UT)", "result": "−1.046"},
      {"measurement": "mt-Co3 pct.1", "setting": "A96 vs untreated (UT)", "result": 0.213},
      {"measurement": "mt-Cytb avg_logFC", "setting": "A96 vs untreated (UT)", "result": "−0.7105"},
      {"measurement": "mt-Cytb pct.1", "setting": "A96 vs untreated (UT)", "result": 0.99},
      {"measurement": "mt-Nd1 avg_logFC", "setting": "A96 vs untreated (UT)", "result": "−0.5843"},
      {"measurement": "mt-Nd1 pct.1", "setting": "A96 vs untreated (UT)", "result": 0.996},
      {"measurement": "mt-Nd2 avg_logFC", "setting": "A96 vs untreated (UT)", "result": "−0.7197"},
      {"measurement": "mt-Nd2 pct.1", "setting": "A96 vs untreated (UT)", "result": 0.994},
      {"measurement": "mt-Nd4 avg_logFC", "setting": "A96 vs untreated (UT)", "result": "−0.8488"},
      {"measurement": "mt-Nd4 pct.1", "setting": "A96 vs untreated (UT)", "result": 0.986},
      {"measurement": "mt-Nd5 avg_logFC", "setting": "A96 vs untreated (UT)", "result": "−0.573"},
      {"measurement": "mt-Nd5 pct.1", "setting": "A96 vs untreated (UT)", "result": 0.964},
      {"measurement": "mt-Rnr1 avg_logFC", "setting": "A96 vs untreated (UT)", "result": "−0.3398"},
      {"measurement": "mt-Rnr1 pct.1", "setting": "A96 vs untreated (UT)", "result": 1},
      {"measurement": "mt-Rnr2 avg_logFC", "setting": "A96 vs untreated (UT)", "result": "−0.3332"},
      {"measurement": "mt-Rnr2 pct.1", "setting": "A96 vs untreated (UT)", "result": 1},
      {"measurement": "mt-Tp avg_logFC", "setting": "A96 vs untreated (UT)", "result": 0.3085},
      {"measurement": "mt-Tp pct.1", "setting": "A96 vs untreated (UT)", "result": 0.329},
      {"measurement": "Acaa1b avg_logFC", "setting": "APAP composite vs UT", "result": "−0.8508"},
      {"measurement": "Agt avg_logFC", "setting": "APAP composite vs UT", "result": 0.5205},
      {"measurement": "Ahsg avg_logFC", "setting": "APAP composite vs UT", "result": 0.2925},
      {"measurement": "Akr1c6 avg_logFC", "setting": "APAP composite vs UT", "result": "−1.586"},
      {"measurement": "Ang avg_logFC", "setting": "APAP composite vs UT", "result": 0.7089},
      {"measurement": "Angptl3 avg_logFC", "setting": "APAP composite vs UT", "result": 0.7089},
      {"measurement": "Apoa2 avg_logFC", "setting": "APAP composite vs UT", "result": "−0.5455"},
      {"measurement": "Apoc1 avg_logFC", "setting": "APAP composite vs UT", "result": "−0.8713"},
      {"measurement": "Apoc2 avg_logFC", "setting": "APAP composite vs UT", "result": 0.7821},
      {"measurement": "Apoe avg_logFC", "setting": "APAP composite vs UT", "result": "−0.4213"},
      {"measurement": "Apoh avg_logFC", "setting": "APAP composite vs UT", "result": 0.4118},
      {"measurement": "Cdo1 avg_logFC", "setting": "APAP composite vs UT", "result": 0.517},
      {"measurement": "Ces1c avg_logFC", "setting": "APAP composite vs UT", "result": 0.4668},
      {"measurement": "Chchd1 avg_logFC", "setting": "APAP composite vs UT", "result": 0.7207},
      {"measurement": "Chchd10 avg_logFC", "setting": "APAP composite vs UT", "result": 0.7207}
    ]}
  ]
}
